Molecules are shown by their SMILES.

This assay addresses T1, sGC α1/β1 heterodimer stably expressed in CHO-K1 cell line (CHO-K1/sGC) (Homo sapiens, UniProt Q02108+Q02153).
T1 construct: expressed in transfected cells
T1 sequence (Q02108 1-690): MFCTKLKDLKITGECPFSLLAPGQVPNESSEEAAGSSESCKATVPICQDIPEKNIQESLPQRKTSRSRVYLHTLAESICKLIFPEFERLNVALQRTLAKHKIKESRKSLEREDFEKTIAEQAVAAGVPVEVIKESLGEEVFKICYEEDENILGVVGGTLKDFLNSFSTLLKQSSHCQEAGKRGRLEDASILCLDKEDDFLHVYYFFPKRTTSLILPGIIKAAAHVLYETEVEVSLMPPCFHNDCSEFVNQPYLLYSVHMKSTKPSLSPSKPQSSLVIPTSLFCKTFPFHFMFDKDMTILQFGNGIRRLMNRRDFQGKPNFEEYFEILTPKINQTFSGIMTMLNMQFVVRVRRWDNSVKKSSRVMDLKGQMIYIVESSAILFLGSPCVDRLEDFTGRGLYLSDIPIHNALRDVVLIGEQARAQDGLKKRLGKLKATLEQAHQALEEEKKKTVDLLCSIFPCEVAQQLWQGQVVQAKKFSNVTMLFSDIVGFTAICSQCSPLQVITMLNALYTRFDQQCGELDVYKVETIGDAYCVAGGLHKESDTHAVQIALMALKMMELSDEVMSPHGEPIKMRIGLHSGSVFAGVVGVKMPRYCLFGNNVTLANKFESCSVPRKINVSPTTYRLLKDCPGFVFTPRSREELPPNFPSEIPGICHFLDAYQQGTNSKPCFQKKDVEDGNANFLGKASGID
T1 sequence (Q02153 1-619): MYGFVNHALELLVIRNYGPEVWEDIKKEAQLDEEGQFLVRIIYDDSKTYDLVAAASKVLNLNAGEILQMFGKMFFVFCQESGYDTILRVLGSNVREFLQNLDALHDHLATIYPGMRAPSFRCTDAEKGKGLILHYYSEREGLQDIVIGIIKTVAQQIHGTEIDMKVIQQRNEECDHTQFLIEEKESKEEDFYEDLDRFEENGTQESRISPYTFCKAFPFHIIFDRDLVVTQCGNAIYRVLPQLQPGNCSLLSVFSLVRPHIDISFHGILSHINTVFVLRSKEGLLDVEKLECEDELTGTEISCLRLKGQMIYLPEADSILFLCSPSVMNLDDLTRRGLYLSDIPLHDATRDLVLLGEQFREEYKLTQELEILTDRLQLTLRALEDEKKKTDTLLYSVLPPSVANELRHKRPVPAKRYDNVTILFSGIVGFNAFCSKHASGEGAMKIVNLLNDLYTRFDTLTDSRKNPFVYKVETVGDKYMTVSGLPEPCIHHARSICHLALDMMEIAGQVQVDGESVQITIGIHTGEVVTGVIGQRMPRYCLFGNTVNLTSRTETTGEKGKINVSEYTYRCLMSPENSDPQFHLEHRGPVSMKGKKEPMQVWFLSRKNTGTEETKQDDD
As to the kind of experiment: Cell-based sGC Functional Assay (CASA Assay), cGMP generation. Conditions: CHO-K1/sGC cells, 1 hr at 37° C., cGMP by HTRF, 4P fit; presence or absence of 1 μM DETA-NO not given; read-out: IP (nM) (inflection point). The source says: sGC is a heme-containing enzyme that converts GTP to secondary messenger cGMP. Increases in cGMP levels affect several physiological processes including vasorelaxation through multiple downstream pathways. […] Heme-dependent activators (HDAs) preferentially activate sGC containing a ferrous heme group. To determine the effect of sGC activators on enzyme activity, the CASA assay was developed to monitor the generation of cGMP in a cell line that stably expresses the heterodimeric sGC protein.
A CHO-K1 cell line stably expressing the sGC α1/β1 heterodimer was generated using a standard transfection protocol. CHO-K1 cells were transfected with plasmids pIREShyghsGCα1 and pIRESneo-hsGCβ1 simultaneously using FUGENE reagent. Clones that stably express both subunits were selected with hygromycin and neomycin for ˜2 weeks. Clone #7 was chosen for the assay and was designated CHO-K1/sGC. CHO-K1/sGC cells were maintained in F-K12 medium containing 10% heat-inactivated Fetal Bovine Serum (FBS), 100 μg/mL penicillin/streptomycin, 0.5 mg/mL hygromycin and 0.25 mg/mL G418. The cells were then cryopreserved in LN2. On the day of the assay, cells thawed and resuspended in EBSS Assay Buffer (Sigma, E3024) supplemented with 5 mM MgCl2, 10 mM HEPES (4-(2-hydroxyethyl)piperazine-1-ethanesulfonic acid) and 0.05% BSA (bovine serum albumin) (EAB) and cell density was then adjusted to 4×10^5/mL with EAB, IBMX (3-isobutyl-1-methylxanthin, 0.5 mM) was added to inhibit degradation of cGMP. Compounds were diluted from DMSO stock solutions and added to the assay at a final DMSO concentration of 2.5%. Cells were incubated with compounds in the presence and absence of 1 μM of Diethylenetriamine/nitric oxide adduct (DETA-NO; Sigma, 17018) for 1 hr at 37° C. At the end of the incubation period, the reaction was terminated and the cells were lysed with the detection reagents from Cisbio Kits. The level of intracellular cGMP was determined using an HTRF-based assay kit (CisBio, 62GM2PEC), which detects the displacement of a fluorescence labeled cGMP from its specific antibody. The cGMP produced by test compounds was directly compared to the maximum cGMP production (this value was set to equal 100% activation.) of the published sGC-HDA Compound A:
[drawing 300] (Example 1 in WO 2010/065275, published Jun. 10, 2010). The test compounds' activities were then expressed as a percentage of Compound A, the standard in every experiment. This percent activation was calculated either in the presence or absence of DETA-NO which was then plotted. IP and maximum fold induction was derived using ADA analysis software for 4P fit.
The compounds in the Examples of the instant invention had inflection points (IP) less than or equal to 10 μM and more particularly less than or equal to about 1 μM.
In general terms: In TR-FRET formats the signal depends on donor and acceptor labels being close together.
For `CCCCc1nc(-c2nc(N)c3c(n2)NC(=O)C3(C)c2ccc(Cl)c(F)c2)cn2ncnc12` (stereo not shown) [Example 62B, 4-amino-2-(8-butyl-[1,2,4]triazolo[1,5-a]pyrazin-6-yl)-5-(4-chloro-3-fluorophenyl)-5-methyl-5H-pyrrolo[2,3-d]pyrimidin-6(7H)-one], the EC50 was found to be 51 nM.
As for `Nc1nc(-c2cn3ncnc3c(CCC(F)(F)C(F)(F)F)n2)nc2c1C(c1cncc(F)c1)(C1CC1)C(=O)N2` (stereo not shown) [Example 8B, 4-amino-5-cyclopropyl-5-(5-fluoropyridin-3-yl)-2-(8-(3,3,4,4,4-pentafluorobutyl)-[1,2,4]triazolo[1,5-a]pyrazin-6-yl)-5H-pyrrolo[2,3-d]pyrimidin-6(7H)-one], the EC50 stood at 294 nM.
On to `O=C1Nc2nc(-c3cn4ncnc4c(CCCC(F)(F)F)n3)nc(O)c2C1(c1ccc(F)c(F)c1)C1CC1` (stereo not shown) [Example 141A, 5-cyclopropyl-5-(3,4-difluorophenyl)-4-hydroxy-2-(8-(4,4,4-trifluorobutyl)-[1,2,4]triazolo[1,5-a]pyrazin-6-yl)-5H-pyrrolo[2,3-d]pyrimidin-6(7H)-one], for which the EC50 worked out at 183 nM.
Regarding `CCCc1nc(-c2nc(N)c3c(n2)NC(=O)C3(c2ccc(F)c(F)c2)C2CC2)cn2ncnc12` (stereo not shown) [Example 58A, 4-amino-5-cyclopropyl-5-(3,4-difluorophenyl)-2-(8-propyl-[1,2,4]triazolo[1,5-a]pyrazin-6-yl)-5H-pyrrolo[2,3-d]pyrimidin-6(7H)-one], the EC50 worked out at 242 nM.
Turning to `CC1(c2ccc(F)c(Cl)c2)C(=O)Nc2nc(-c3cn4ncnc4c(CCCC(F)(F)F)n3)nc(N)c21` (stereo not shown) [Example 42B, 4-amino-5-(3-chloro-4-fluorophenyl)-5-methyl-2-(8-(4,4,4-trifluorobutyl)-[1,2,4]triazolo[1,5-a]pyrazin-6-yl)-5H-pyrrolo[2,3-d]pyrimidin-6(7H)-one], the EC50 came out at 8.7 nM.
The result for `CCCCc1nc(-c2nc(O)c3c(n2)NC(=O)C3(C)c2ccc(Cl)cc2)cn2ncnc12` (stereo not shown) [Example 157A, 2-(8-butyl-[1,2,4]triazolo[1,5-a]pyrazin-6-yl)-5-(4-chlorophenyl)-4-hydroxy-5-methyl-5H-pyrrolo[2,3-d]pyrimidin-6(7H)-one] reads 72.7 nM.
Regarding `CC1(c2ccc(Cl)c(F)c2)C(=O)Nc2nc(-c3cn4ncnc4c(CCCC(F)(F)F)n3)nc(N)c21` (stereo not shown) [Example 28B, 4-amino-5-(4-chloro-3-fluorophenyl)-5-methyl-2-(8-(4,4,4-trifluorobutyl)-[1,2,4]triazolo[1,5-a]pyrazin-6-yl)-5H-pyrrolo[2,3-d]pyrimidin-6(7H)-one], the EC50 came to 20 nM.
The result for `CCCc1nc(-c2nc(O)c3c(n2)NC(=O)[C@@]3(C)c2ccc(F)cc2)cn2ncnc12` [Example 165A, (S)-5-(4-fluorophenyl)-4-hydroxy-5-methyl-2-(8-propyl-[1,2,4]triazolo[1,5-a]pyrazin-6-yl)-5,7-dihydro-6H-pyrrolo[2,3-d]pyrimidin-6-one] reads 1520 nM; that for `Nc1nc(-c2cn3ncnc3c(CCCC(F)(F)F)n2)nc2c1C(c1ccc(F)c(F)c1)(C1CC1)C(=O)N2` (stereo not shown) [Example 32A, 4-amino-5-cyclopropyl-5-(3,4-difluorophenyl)-2-(8-(4,4,4-trifluorobutyl)-[1,2,4]triazolo[1,5-a]pyrazin-6-yl)-5H-pyrrolo[2,3-d]pyrimidin-6(7H)-one], 77.4 nM.
As for `Nc1nc(-c2cn3ncnc3c(CCCC(F)(F)F)n2)nc2c1C(c1ccc(F)cc1)(C1CC1)C(=O)N2` (stereo not shown) [Example 30B, 4-amino-5-cyclopropyl-5-(4-fluorophenyl)-2-(8-(4,4,4-trifluorobutyl)-[1,2,4]triazolo[1,5-a]pyrazin-6-yl)-5H-pyrrolo[2,3-d]pyrimidin-6(7H)-one], the EC50 turned out to be 36.7 nM.
Take `CC1(c2ccc(Cl)c(F)c2)C(=O)Nc2nc(-c3cn4ncnc4c(CCC(F)(F)C(F)(F)F)n3)nc(N)c21` (stereo not shown) [Example 5B, 4-amino-5-(4-chloro-3-fluorophenyl)-5-methyl-2-(8-(3,3,4,4,4-pentafluorobutyl)-[1,2,4]triazolo[1,5-a]pyrazin-6-yl)-5H-pyrrolo[2,3-d]pyrimidin-6(7H)-one]: the EC50 came out at 20.9 nM.
With `CCCCc1nc(-c2nc(N)c3c(n2)NC(=O)C3(c2ccc(C(F)(F)F)cn2)C2CC2)cn2ncnc12` (stereo not shown) [Example 70A, 4-amino-2-(8-butyl-[1,2,4]triazolo[1,5-a]pyrazin-6-yl)-5-cyclopropyl-5-(5-(trifluoromethyl)pyridin-2-yl)-5H-pyrrolo[2,3-d]pyrimidin-6(7H)-one], the EC50 was found to be 41.8 nM.
To `O=C1Nc2nc(-c3cn4ncnc4c(CCCC(F)(F)F)n3)nc(O)c2C1(c1ccc(Cl)cc1)C1CC1` (stereo not shown) [Example 140B, 5-(4-chlorophenyl)-5-cyclopropyl-4-hydroxy-2-(8-(4,4,4-trifluorobutyl)-[1,2,4]triazolo[1,5-a]pyrazin-6-yl)-5H-pyrrolo[2,3-d]pyrimidin-6(7H)-one] belongs 277 nM; to `C[C@@]1(c2ccc(F)cc2)C(=O)Nc2nc(-c3cn4ncnc4c(CCC(F)(F)C(F)(F)F)n3)nc(O)c21` [Example 119A, (S)-5-(4-fluorophenyl)-4-hydroxy-5-methyl-2-(8-(3,3,4,4,4-pentafluorobutyl)-[1,2,4]triazolo[1,5-a]pyrazin-6-yl)-5,7-dihydro-6H-pyrrolo[2,3-d]pyrimidin-6-one], 134 nM; to `CCCc1nc(-c2nc(O)c3c(n2)NC(=O)C3(C)c2ccc(Cl)cc2)cn2nc(C)nc12` (stereo not shown) [Example 168A, 5-(4-chlorophenyl)-4-hydroxy-5-methyl-2-(2-methyl-8-propyl-[1,2,4]triazolo[1,5-a]pyrazin-6-yl)-5H-pyrrolo[2,3-d]pyrimidin-6(7H)-one], 1450 nM.
For `CC1(c2ccccn2)C(=O)Nc2nc(-c3cn4ncnc4c(CCC(F)(F)C(F)(F)F)n3)nc(O)c21` (stereo not shown) [Example 127B, 4-hydroxy-5-methyl-2-(8-(3,3,4,4,4-pentafluorobutyl)-[1,2,4]triazolo[1,5-a]pyrazin-6-yl)-5-(pyridin-2-yl)-5H-pyrrolo[2,3-d]pyrimidin-6(7H)-one], the EC50 came out at 1260 nM.

The values are drawn from patent US9822130B2, “Triazolo-pyrazinyl derivatives useful as soluble guanylate cyclase activators” (Merck Sharp & Dohme Corp., priority 2014, dated 2017).
